Values of other authors as cited in patent US6410601B1, “Histochrome and its therapeutic use in acute myocardial infarction and ischemic heart disease” (priority 1998, dated 2002).

System: patients with acute myocardial infarction
Settings: 10 mg/kg intravenously before thrombolytic reperfusion

In the case of `CCc1nc(C)ccc1O` [Emoxipin], the “reduction of the size of the asynergic zone in the myocardium” value (26 patients, control group 39.2%) is given as 59.5%, the “frequency of myocardial arrhythmias” value (control 28.1%) is given as 13.9% and the “lipid peroxidation in terms of malonic dialdehyde concentration” value (monotherapy 309%) is given as 60%.
